Target: T1, Nav1.7 (or SCN9A) channel; HEK cells stably transfected with hSCN9A (Homo sapiens, UniProt Q15858)
T1 construct: expressed in transfected cells
Test: Nav1.7 block, PatchXpress 7000 automated whole-cell voltage clamp, estimated IC50 (EIC50)
Assay type: cell-based
Settings: estimated IC50, PatchXpress platform

[1] = hSCN9A HEK cells, Examples 283-814
[2] = hSCN9A HEK cells held at V1/2 of inactivation
[3] = hSCN9A HEK cells, Examples 815-1040

T1 sequence (Q15858 whole entry): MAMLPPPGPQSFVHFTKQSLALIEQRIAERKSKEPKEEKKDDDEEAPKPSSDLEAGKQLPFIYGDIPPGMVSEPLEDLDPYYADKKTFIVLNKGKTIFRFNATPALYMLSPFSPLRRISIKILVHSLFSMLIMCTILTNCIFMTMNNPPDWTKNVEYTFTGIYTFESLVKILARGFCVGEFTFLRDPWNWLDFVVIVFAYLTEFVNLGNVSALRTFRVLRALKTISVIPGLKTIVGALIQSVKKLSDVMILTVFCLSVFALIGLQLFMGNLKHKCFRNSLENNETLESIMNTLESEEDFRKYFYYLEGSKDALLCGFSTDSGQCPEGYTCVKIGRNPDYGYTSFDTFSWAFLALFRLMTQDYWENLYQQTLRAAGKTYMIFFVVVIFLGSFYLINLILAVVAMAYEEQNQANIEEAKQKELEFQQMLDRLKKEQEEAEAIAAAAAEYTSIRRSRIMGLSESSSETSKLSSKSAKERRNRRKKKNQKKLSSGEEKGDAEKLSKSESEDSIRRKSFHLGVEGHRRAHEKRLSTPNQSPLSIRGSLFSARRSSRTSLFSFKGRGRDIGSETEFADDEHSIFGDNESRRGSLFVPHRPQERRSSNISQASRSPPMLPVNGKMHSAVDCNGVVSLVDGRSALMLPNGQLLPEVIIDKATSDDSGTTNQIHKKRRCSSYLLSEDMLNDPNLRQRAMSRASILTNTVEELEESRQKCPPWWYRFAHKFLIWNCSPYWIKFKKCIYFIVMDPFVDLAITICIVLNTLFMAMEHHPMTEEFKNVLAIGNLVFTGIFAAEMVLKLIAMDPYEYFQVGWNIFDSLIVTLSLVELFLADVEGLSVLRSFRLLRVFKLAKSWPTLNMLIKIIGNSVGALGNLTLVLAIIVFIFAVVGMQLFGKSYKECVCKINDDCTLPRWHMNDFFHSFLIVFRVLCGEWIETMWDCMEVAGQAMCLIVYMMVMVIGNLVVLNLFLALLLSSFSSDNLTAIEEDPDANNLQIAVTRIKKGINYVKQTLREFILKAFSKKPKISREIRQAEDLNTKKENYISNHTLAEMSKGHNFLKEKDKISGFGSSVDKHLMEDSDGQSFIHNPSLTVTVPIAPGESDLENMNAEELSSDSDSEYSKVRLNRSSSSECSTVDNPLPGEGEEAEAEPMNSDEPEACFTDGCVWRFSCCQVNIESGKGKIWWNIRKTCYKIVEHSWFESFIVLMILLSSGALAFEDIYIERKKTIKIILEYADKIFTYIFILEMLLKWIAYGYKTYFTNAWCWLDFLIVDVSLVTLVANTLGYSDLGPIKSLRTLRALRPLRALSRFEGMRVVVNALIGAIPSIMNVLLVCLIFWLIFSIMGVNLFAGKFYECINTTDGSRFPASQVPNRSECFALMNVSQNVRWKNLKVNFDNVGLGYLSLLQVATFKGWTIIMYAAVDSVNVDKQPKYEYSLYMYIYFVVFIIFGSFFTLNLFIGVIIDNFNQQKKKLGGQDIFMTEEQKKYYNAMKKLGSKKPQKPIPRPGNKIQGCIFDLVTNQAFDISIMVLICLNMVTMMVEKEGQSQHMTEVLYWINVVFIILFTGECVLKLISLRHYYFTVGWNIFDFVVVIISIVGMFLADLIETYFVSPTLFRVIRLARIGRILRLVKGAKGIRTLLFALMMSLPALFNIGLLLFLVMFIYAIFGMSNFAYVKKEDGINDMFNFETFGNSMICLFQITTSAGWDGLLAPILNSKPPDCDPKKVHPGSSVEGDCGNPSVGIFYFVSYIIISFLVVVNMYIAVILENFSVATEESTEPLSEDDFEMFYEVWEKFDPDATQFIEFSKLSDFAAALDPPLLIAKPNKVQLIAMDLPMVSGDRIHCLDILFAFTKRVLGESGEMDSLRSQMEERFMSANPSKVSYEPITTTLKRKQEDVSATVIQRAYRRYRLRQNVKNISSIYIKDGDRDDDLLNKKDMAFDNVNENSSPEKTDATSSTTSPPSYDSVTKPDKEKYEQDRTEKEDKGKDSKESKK

Row | Structure (SMILES) | IC50 [1] [nM] | IC50 [2] [nM] | also measured
1 | N#Cc1cc(S(=O)(=O)Nc2nccs2)ccc1Oc1cccc(-c2cccc(N)n2)c1 [Example 639, 4-[3-(6-aminopyridin-2-yl)phenoxy]-3-cyano-N-1,3-thiazol-2-ylbenzenesulfonamide] | 6900 | – | –
2 | CC(C)(C)n1nccc1-c1c(Cl)cccc1Oc1ccc(S(=O)(=O)Nc2nccs2)cc1C#N [Example 198, 4-[2-(2-tert-butyl-2H-pyrazol-3-yl)-3-chloro-phenoxy]-3-cyano-N-thiazol-2-yl-benzenesulfonamide] | – | 2470 | –
3 | O=S(=O)(Nc1ccc(F)cn1)c1cc(Cl)c(Oc2ccc(Cl)cc2C2CCNCC2)cc1F [Example 623, 5-chloro-4-(4-chloro-2-piperidin-4-ylphenoxy)-2-fluoro-N-(5-fluoropyridin-2-yl)benzenesulfonamide] | 46 | – | –
4 | N#Cc1cc(S(=O)(=O)Nc2ncns2)ccc1Oc1ccc(Cl)cc1-c1cccc(CC(=O)O)c1 [Example 1000, (5′-chloro-2′-{2-cyano-4-[(1,2,4-thiadiazol-5-ylamino)sulfonyl]phenoxy}biphenyl-3-yl)acetic acid] | – | – | IC50 [3]: 130 nM
5 | Cc1cc(S(=O)(=O)Nc2nccs2)ccc1Oc1ccccc1-c1ccccc1 [Example 258, 4-(biphenyl-2-yloxy)-3-methyl-N-1,3-thiazol-2-ylbenzenesulfonamide] | – | 1020 | –
6 | N#Cc1cc(S(=O)(=O)Nc2ncc(F)s2)ccc1Oc1ccc(CCCO)cc1-c1cn[nH]c1 [Example 714, 3-cyano-N-(5-fluoro-1,3-thiazol-2-yl)-4-[4-(3-hydroxypropyl)-2-(1H-pyrazol-4-yl)phenoxy]benzenesulfonamide] | 190 | – | –
7 | N#Cc1cc(S(=O)(=O)Nc2nccs2)ccc1Oc1ccc(-n2cc(C(N)=O)cn2)cc1 [Example 379, 1-(4-{2-cyano-4-[(1,3-thiazol-2-ylamino)sulfonyl]phenoxy}phenyl)-1H-pyrazole-4-carboxamide] | >1000 | – | –
8 | N#Cc1cc(S(=O)(=O)Nc2nccs2)ccc1Oc1ccc(-c2cc(C(F)(F)F)nn2C2CNC2)cc1 [Example 558, 4-{4-[1-azetidin-3-yl-3-(trifluoromethyl)-1H-pyrazol-5-yl]phenoxy}-3-cyano-N-1,3-thiazol-2-ylbenzenesulfonamide] | 39 | – | –
9 | N#Cc1cc(S(=O)(=O)Nc2ncns2)ccc1Oc1ccc(Cl)cc1C1CCOCC1 [Example 836, 4-[4-chloro-2-(tetrahydro-2H-pyran-4-yl)phenoxy]-3-cyano-N-1,2,4-thiadiazol-5-ylbenzenesulfonamide] | – | – | IC50 [3]: 40 nM
10 | O=S(=O)(Nc1ncns1)c1ccc(Oc2ccccc2-c2ccccc2)cc1Cl [Example 263, 4-(biphenyl-2-yloxy)-2-chloro-N-1,2,4-thiadiazol-5-ylbenzenesulfonamide] | – | 1440 | –
11 | CN1CC(n2nccc2-c2cc(F)ccc2Oc2cc(F)c(S(=O)(=O)Nc3cscn3)cc2Cl)C1 [Example 807, 5-Chloro-2-fluoro-4-{4-fluoro-2-[1-(1-methylazetidin-3-yl)-1H-pyrazol-5-yl]phenoxy}-N-1,3-thiazol-4-ylbenzenesulfonamide] | 15 | – | –
12 | CC(C)Oc1cc(-c2cc(F)ccc2Oc2ccc(S(=O)(=O)Nc3cscn3)cc2C#N)n(C)n1 [Example 396, 3-cyano-4-[4-fluoro-2-(3-isopropoxy-1-methyl-1H-pyrazol-5-yl)phenoxy]-N-1,3-thiazol-4-ylbenzenesulfonamide] | >3000 | – | –
13 | COc1cc(S(=O)(=O)Nc2ncns2)ccc1Oc1ccccc1-c1ccccc1 [Example 262, 4-(biphenyl-2-yloxy)-3-methoxy-N-1,2,4-thiadiazol-5-ylbenzenesulfonamide] | – | 1320 | –
14 | Cn1nccc1-c1ccc(Oc2ccc(S(=O)(=O)Nc3nccs3)cc2C#N)c(Cl)c1 [Example 179, 4-(2-chloro-4-(1-methyl-1H-pyrazol-5-yl)phenoxy)-3-cyano-N-(thiazol-2-yl)benzenesulfonamide] | – | 2190 | –
15 | CN1CCC(n2nccc2-c2cc(Cl)ccc2Oc2ccc(S(=O)(=O)Nc3ncns3)cc2C#N)CC1 [Example 725, 4-{4-chloro-2-[1-(1-methylpiperidin-4-yl)-1H-pyrazol-5-yl]phenoxy}-3-cyano-N-1,2,4-thiadiazol-5-ylbenzenesulfonamide] | 20 | – | –
16 | Cc1ccc(NS(=O)(=O)c2ccc(Oc3ccccc3-c3ccccc3)c(C#N)c2)nc1 [Example 424, 4-(biphenyl-2-yloxy)-3-cyano-N-(5-methylpyridin-2-yl)benzenesulfonamide] | >3000 | – | –
17 | N#Cc1cc(S(=O)(=O)Nc2ncns2)ccc1Oc1cc(F)c(C(F)(F)F)cc1-c1ccnnc1 [Example 1035, 3-Cyano-4-[5-fluoro-2-pyridazin-4-yl-4-(trifluoromethyl)phenoxy]-N-1,2,4-thiodiazol-5-ylbenzenesulfonamide] | – | – | IC50 [3]: 3.8 nM
18 | O=S(=O)(Nc1ccc(F)cn1)c1cc(F)c(Oc2ccc(Cl)cc2C2CCNCC2)cc1F [Example 561, 4-(4-chloro-2-piperidin-4-ylphenoxy)-2,5-difluoro-N-(5-fluoropyridin-2-yl)benzenesulfonamide] | 380 | – | –
19 | O=S(=O)(Nc1ncns1)c1cc(Cl)c(Oc2ccc(Cl)cc2C2CNC2)cc1F [Example 619, 4-(2-azetidin-3-yl-4-chlorophenoxy)-5-chloro-2-fluoro-N-1,2,4-thiadiazol-5-ylbenzenesulfonamide] | 45 | – | –
20 | N#Cc1cc(S(=O)(=O)Nc2nccs2)ccc1Oc1ccc(-n2ccc(C(F)(F)F)n2)c(F)c1 [Example 381, 3-cyano-4-{3-fluoro-4-[3-(trifluoromethyl)-1H-pyrazol-1-yl]phenoxy}-N-1,3-thiazol-2-ylbenzenesulfonamide] | 470 | – | –
21 | O=S(=O)(Nc1nncs1)c1cc(F)c(Oc2ccc(Cl)cc2-c2cn[nH]c2)cc1F [Example 821, 4-[4-chloro-2-(1H-pyrazol-4-yl)phenoxy]-2,5-difluoro-N-1,3,4-thiadiazol-2-ylbenzenesulfonamide] | – | – | IC50 [3]: 100 nM
22 | Nc1cc(-c2cc(F)ccc2Oc2cc(F)c(S(=O)(=O)Nc3ncns3)cc2Cl)[nH]n1 [Example 840, 4-[2-(3-amino-1H-pyrazol-5-yl)-4-fluorophenoxy]-5-chloro-2-fluoro-N-1,2,4-thiadiazol-5-ylbenzenesulfonamide] | – | – | IC50 [3]: 52 nM
23 | N#Cc1cc(S(=O)(=O)Nc2nccs2)ccc1Oc1ccc(-n2ccc(C(F)(F)F)n2)cc1 [Example 183, 3-cyano-N-thiazol-2-yl-4-[4-(3-trifluoromethyl-pyrazol-1-yl)-phenoxy]-benzenesulfonamide] | – | 990 | –
24 | O=S(=O)(Nc1ncns1)c1cc(Cl)c(Oc2ccc(F)cc2-c2cn[nH]c2)cc1F [Example 755, 5-chloro-2-fluoro-4-[4-fluoro-2-(1H-pyrazol-4-yl)phenoxy]-N-1,2,4-thiadiazol-5-ylbenzenesulfonamide] | 2.4 | – | –
25 | O=S(=O)(Nc1ncns1)c1ccc(Oc2ccccc2-c2ccccc2)cc1C(F)(F)F [Example 260, 4-(biphenyl-2-yloxy)-N-1,2,4-thiadiazol-5-yl-2-(trifluoromethyl)benzenesulfonamide] | – | 15900 | –

The next lines start with results.

Row | IC50 [1] [nM] | IC50 [2] [nM] | Structure (SMILES) | also measured
26 | – | 12700 | Cc1cccc(-c2ccc(F)cc2F)c1Oc1ccc(S(=O)(=O)Nc2ncns2)cc1C#N [Example 35, 3-cyano-4-[(2′,4′-difluoro-3-methylbiphenyl-2-yl)oxy]-N-1,2,4-thiadiazol-5-ylbenzenesulfonamide] | –
27 | – | 1430 | Cn1ccc(-c2c(F)cccc2Oc2ccc(S(=O)(=O)Nc3ncns3)cc2C#N)n1 [Example 85, 3-Cyano-4-[3-fluoro-2-(1-methyl-1H-pyrazol-3-yl)-phenoxy]-N-[1,2,4]thiadiazol-5-yl-benzene-sulfonamide] | –
28 | – | 1730 | COc1ccc(-c2cccc(C)c2Oc2ccc(S(=O)(=O)Nc3ncns3)cc2C#N)cc1 [Example 42, 3-cyano-4-[(4′-methoxy-3-methylbiphenyl-2-yl)oxy]-N-1,2,4-thiadiazol-5-ylbenzenesulfonamide] | –
29 | – | 380 | N#Cc1cc(S(=O)(=O)Nc2ncns2)ccc1Oc1ccccc1-c1ccc(F)cc1F [Example 56, 3-cyano-4-[(2′,4′-difluorobiphenyl-2-yl)oxy]-N-1,2,4-thiadiazol-5-ylbenzenesulfonamide] | –
30 | 31 | – | N#Cc1cccc(-c2cc(C(F)(F)F)ccc2Oc2ccc(S(=O)(=O)Nc3ncns3)cc2C#N)c1 [Example 509, 3-cyano-4-{[3′-cyano-5-(trifluoromethyl)biphenyl-2-yl]oxy}-N-1,2,4-thiadiazol-5-ylbenzenesulfonamide] | –
31 | – | 50 | COc1ccc(-c2cc(F)ccc2Oc2ccc(S(=O)(=O)Nc3nccs3)cc2C#N)cn1 [Example 151, 3-cyano-4-[4-fluoro-2-(6-methoxypyridin-3-yl)phenoxy]-N-1,3-thiazol-2-ylbenzenesulfonamide] | –
32 | – | 600 | Cc1ccc(Oc2ccc(C#N)cc2)c(Oc2ccc(S(=O)(=O)Nc3ncns3)cc2C#N)c1 [Example 78, 3-cyano-4-[2-(4-cyanophenoxy)-5-methylphenoxy]-N-1,2,4-thiadiazol-5-ylbenzenesulfonamide] | –
33 | – | 7710 | N#Cc1cc(S(=O)(=O)Nc2nccs2)ccc1Oc1cc(-c2ccccc2)nn1CC(F)(F)F [Example 190, 3-cyano-4-[5-phenyl-2-(2,2,2-trifluoro-ethyl)-2H-pyrazol-3-yloxy]-N-thiazol-2-yl-benzenesulfonamide] | –
34 | – | 630 | COc1ccc(-c2ccccc2Oc2ccc(S(=O)(=O)Nc3ncns3)cc2C#N)c(C)c1 [Example 10, 3-cyano-4-[(4′-methoxy-2′-methylbiphenyl-2-yl)oxy]-N-1,2,4-thiadiazol-5-ylbenzenesulfonamide] | –
35 | >1000 | – | N#Cc1cc(S(=O)(=O)Nc2ncns2)ccc1Oc1ccc(-c2nc(CO)co2)cc1 [Example 665, 3-Cyano-4-{4-[4-(hydroxymethyl)-1,3-oxazol-2-yl]phenoxy}-N-1,2,4-thiadiazol-5-ylbenzenesulfonamide] | –
36 | >1000 | – | N#Cc1cc(S(=O)(=O)Nc2cscn2)ccc1Oc1ccc(Cl)cc1-c1ccn(C(F)(F)F)n1 [Example 398, 4-{4-chloro-2-[1-(trifluoromethyl)-1H-pyrazol-3-yl]phenoxy}-3-cyano-N-1,3-thiazol-4-ylbenzenesulfonamide] | –

Reference: US8541588B2, “Sulfonamide derivatives” (Pfizer Limited, priority 2009, dated 2013)
